# Reference: patent US6489297B1, “Vasoactive intestinal peptide analogs” (Dabur Research Foundation, priority 2000, dated 2002)
# Where a SMILES comes first, the peptide text is derived from it. [ ]: non-standard residue; d: D form. dPhe(4-Cl) = N[C@H](Cc1ccc(Cl)cc1)C(=O)O; Ac5c = NC1(C(=O)O)CCCC1; Aib = CC(C)(N)C(=O)O
# Columns and labels:
# Format in all cases: cell-based, human
# Conditions in all cases: 72 hours
# L132 (lung) = experiment: MTT cytotoxicity assay, L132 cells
# Method: (§1) The cytotoxic activity of synthesized peptides was tested on […] human tumor cell lines namely PA-1 (ovary), SW620 (colon) HuTu80 (duodenum), L132 (lung), U87MG (glioblastoma), KB (oral), MIAPaCa2(pancreas), A549(non small cell lung) and HT-29(colon). The tumor cells were collected at exponential growth phase and resuspended in medium (1.5×10^6 cells/ml in RPMI 1640 containing 10% FBS). 150 μl of medium was added to the wells of a 96-well tissue culture plate (Nunc, Denmark) followed by 30 μl of cell suspension. The plate was left in incubator (37° C., 5% CO2) overnight. 20 μl of the peptide (100 pM to 1 uM concentration) was added to marked wells of the 96-well plate. Each concentration was plated in triplicates. 20 μl of medium alone was added to control wells while wells without cells served as blanks. A total volume of 200 μl was ensured in each well and plate was left in incubator (37° C., 5% CO2). After 72 hours of incubation an MTT assay was performed and percentage cytotoxicity was calculated with respect to control cells. Following Tables show the maximum cytotoxicity achieved on various cell lines.
# U87MG (glioblastoma) = experiment: MTT cytotoxicity assay, U87MG cells
# Method: as §1
# HT-29(colon) = experiment: MTT cytotoxicity assay, HT-29 cells
# Method: as §1
# HuTu80 (duodenum) = experiment: MTT cytotoxicity assay, HuTu80 cells
# Method: as §1
# [1] = test system: A549(non small cell lung); experiment: MTT cytotoxicity assay, A549 cells
# Method: as §1
# MIAPaCa2(pancreas) = experiment: MTT cytotoxicity assay, MIAPaCa2 cells
# Method: as §1
# SW620 (colon) = experiment: MTT cytotoxicity assay, SW620 cells
# Method: as §1
# KB (oral) = experiment: MTT cytotoxicity assay, KB cells
# Method: as §1
# PA-1 (ovary) = experiment: MTT cytotoxicity assay, PA-1 cells
# Method: as §1
structure (smiles),measurement,setting,value
CC[C@H](C)[C@H](NC(=O)[C@H](CO)NC(=O)[C@H](CC(N)=O)NC(=O)[C@H](CC(C)C)NC(=O)[C@H](Cc1ccc(O)cc1)NC(=O)[C@H](CCCCN)NC(=O)[C@H](CCCCN)NC(=O)[C@@H](NC(=O)[C@H](C)NC(=O)[C@H](CC(C)C)NC(=O)[C@H](CCC(N)=O)NC(=O)[C@H](CCCCN)NC(=O)[C@H](CCCNC(=N)N)NC(=O)[C@H](CC(C)C)NC(=O)[C@H](CCCNC(=N)N)NC(=O)[C@@H](NC(=O)[C@H](Cc1ccc(O)cc1)NC(=O)[C@H](CC(N)=O)NC(=O)[C@H](CC(=O)O)NC(=O)[C@@H](NC(=O)[C@@H](Cc1ccc(Cl)cc1)NC(=O)[C@@H](NC(=O)C(C)(C)NC(=O)[C@H](CC(=O)O)NC(=O)[C@H](CO)NC(=O)[C@@H](N)Cc1c[nH]cn1)C(C)C)[C@@H](C)O)[C@@H](C)O)C(C)C)C(=O)N[C@@H](CC(C)C)C(=O)N[C@@H](CC(N)=O)C(N)=O [SEQ ID NO: 2] (H-HSD[Aib]V[dPhe(4-Cl)]TDNYTRLRKQLAVKKYLNSILN-NH2),Percentage cytotoxicity,"L132 (lung); L132, 100 pM",18 ± 2.3%
same,Percentage cytotoxicity,"L132 (lung); L132, 1 nM",28 ± 4.5%
same,Percentage cytotoxicity,"L132 (lung); L132, 10 nM",30.9 ± 7.0%
same,Percentage cytotoxicity,"L132 (lung); L132, 100 nM",18.9 ± 5.0%
same,Percentage cytotoxicity,"L132 (lung); L132, 1 μM",15.9 ± 7.5%
same,Percentage cytotoxicity,U87MG (glioblastoma); 100 pM,10.5 ± 4.5%
same,Percentage cytotoxicity,U87MG (glioblastoma); 1 nM,12 ± 7.6%
same,Percentage cytotoxicity,U87MG (glioblastoma); 10 nM,28.9 ± 5.6%
same,Percentage cytotoxicity,U87MG (glioblastoma); 100 nM,19.0 ± 7.0%
same,Percentage cytotoxicity,U87MG (glioblastoma); 1 μM,14 ± 4.5%
same,Percentage cytotoxicity,"HT-29(colon); HT29, 100 pM",26 ± 5.5%
same,Percentage cytotoxicity,"HT-29(colon); HT29, 1 nM",25 ± 4.5%
same,Percentage cytotoxicity,"HT-29(colon); HT29, 10 nM",25 ± 4.5%
same,Percentage cytotoxicity,"HT-29(colon); HT29, 100 nM",30 ± 5.8%
same,Percentage cytotoxicity,"HT-29(colon); HT29, 1 μM",38 ± 5.5%
same,Percentage cytotoxicity,"HuTu80 (duodenum); HuTu80, 100 pM",10 ± 3.5%
same,Percentage cytotoxicity,"HuTu80 (duodenum); HuTu80, 1 nM",20 ± 5.5%
same,Percentage cytotoxicity,"HuTu80 (duodenum); HuTu80, 10 nM",18 ± 4.5%
same,Percentage cytotoxicity,"HuTu80 (duodenum); HuTu80, 100 nM",24 ± 5.6%
same,Percentage cytotoxicity,"HuTu80 (duodenum); HuTu80, 1 μM",39 ± 4.5%
same,Percentage cytotoxicity,"[1]; A549, 100 pM",16 ± 5.5%
same,Percentage cytotoxicity,"[1]; A549, 1 nM",19 ± 4.5%
same,Percentage cytotoxicity,"[1]; A549, 10 nM",21 ± 5.5%
same,Percentage cytotoxicity,"[1]; A549, 100 nM",41 ± 6.0%
same,Percentage cytotoxicity,"[1]; A549, 1 μM",45 ± 5.5%
same,Percentage cytotoxicity,"MIAPaCa2(pancreas); MIAPaCa2, 100 pM",20 ± 6.5%
same,Percentage cytotoxicity,"MIAPaCa2(pancreas); MIAPaCa2, 1 nM",31 ± 5.0%
same,Percentage cytotoxicity,"MIAPaCa2(pancreas); MIAPaCa2, 10 nM",35 ± 3.5%
same,Percentage cytotoxicity,"MIAPaCa2(pancreas); MIAPaCa2, 100 nM",32 ± 4.5%
same,Percentage cytotoxicity,"MIAPaCa2(pancreas); MIAPaCa2, 1 μM",36 ± 0.5%
same,Percentage cytotoxicity,"SW620 (colon); SW620, 100 pM",16.9 ± 4.5%
same,Percentage cytotoxicity,"SW620 (colon); SW620, 1 nM",28 ± 6.6%
same,Percentage cytotoxicity,"SW620 (colon); SW620, 10 nM",30 ± 4.5%
same,Percentage cytotoxicity,"SW620 (colon); SW620, 100 nM",23 ± 3.8%
same,Percentage cytotoxicity,"SW620 (colon); SW620, 1 μM",18.5 ± 5.1%
same,Percentage cytotoxicity,KB (oral); 100 pM,47 ± 8.5%
same,Percentage cytotoxicity,KB (oral); 1 nM,42 ± 8.0%
same,Percentage cytotoxicity,KB (oral); 10 nM,34 ± 6.0%
same,Percentage cytotoxicity,KB (oral); 100 nM,37 ± 5.0%
same,Percentage cytotoxicity,KB (oral); 1 μM,43 ± 0.5%
same,Percentage cytotoxicity,"PA-1 (ovary); PA1, 100 pM",16 ± 3.3%
same,Percentage cytotoxicity,"PA-1 (ovary); PA1, 1 nM",30.0 ± 6.7%
same,Percentage cytotoxicity,"PA-1 (ovary); PA1, 10 nM",28.9 ± 5.5%
same,Percentage cytotoxicity,"PA-1 (ovary); PA1, 100 nM",18.9 ± 4.2%
same,Percentage cytotoxicity,"PA-1 (ovary); PA1, 1 μM",16.5 ± 3.4%
CC[C@H](C)[C@H](NC(=O)[C@H](CO)NC(=O)[C@H](CC(N)=O)NC(=O)[C@H](CC(C)C)NC(=O)[C@H](Cc1ccc(O)cc1)NC(=O)[C@H](CCCCN)NC(=O)[C@H](CCCCN)NC(=O)[C@@H](NC(=O)[C@H](C)NC(=O)[C@H](CC(C)C)NC(=O)[C@H](CCC(N)=O)NC(=O)[C@H](CCCCN)NC(=O)[C@H](CCCNC(=N)N)NC(=O)[C@H](CC(C)C)NC(=O)[C@H](CCCNC(=N)N)NC(=O)[C@@H](NC(=O)[C@H](Cc1ccc(O)cc1)NC(=O)[C@H](CC(N)=O)NC(=O)[C@H](CC(=O)O)NC(=O)[C@@H](NC(=O)[C@@H](Cc1ccc(Cl)cc1)NC(=O)[C@@H](NC(=O)C1(NC(=O)[C@H](CC(=O)O)NC(=O)[C@H](CO)NC(=O)[C@@H](N)Cc2c[nH]cn2)CCCC1)C(C)C)[C@@H](C)O)[C@@H](C)O)C(C)C)C(=O)N[C@@H](CC(C)C)C(=O)N[C@@H](CC(N)=O)C(N)=O [SEQ ID NO: 4] (H-HSD[Ac5c]V[dPhe(4-Cl)]TDNYTRLRKQLAVKKYLNSILN-NH2),Percentage cytotoxicity,"L132 (lung); L132, 100 pM",11 ± 8.0%
same,Percentage cytotoxicity,"L132 (lung); L132, 1 nM",27 ± 4.5%
same,Percentage cytotoxicity,"L132 (lung); L132, 10 nM",30 ± 5.5%
same,Percentage cytotoxicity,"L132 (lung); L132, 100 nM",28 ± 5.5%
same,Percentage cytotoxicity,"L132 (lung); L132, 1 μM",13 ± 4.5%
same,Percentage cytotoxicity,U87MG (glioblastoma); 100 pM,10 ± 4.6%
same,Percentage cytotoxicity,U87MG (glioblastoma); 1 nM,15 ± 7.8%
same,Percentage cytotoxicity,U87MG (glioblastoma); 10 nM,29 ± 6.7%
same,Percentage cytotoxicity,U87MG (glioblastoma); 100 nM,28 ± 7.7%
same,Percentage cytotoxicity,U87MG (glioblastoma); 1 μM,27 ± 5.5%
same,Percentage cytotoxicity,"HuTu80 (duodenum); HuTu80, 100 pM",11 ± 8.0%
same,Percentage cytotoxicity,"HuTu80 (duodenum); HuTu80, 1 nM",30 ± 7.0%
same,Percentage cytotoxicity,"HuTu80 (duodenum); HuTu80, 10 nM",27 ± 5.0%
same,Percentage cytotoxicity,"HuTu80 (duodenum); HuTu80, 100 nM",27 ± 7.9%
same,Percentage cytotoxicity,"HuTu80 (duodenum); HuTu80, 1 μM",15.5 ± 6.5%
same,Percentage cytotoxicity,"SW620 (colon); SW620, 100 pM",16.9 ± 5.5%
same,Percentage cytotoxicity,"SW620 (colon); SW620, 1 nM",31 ± 6.5%
same,Percentage cytotoxicity,"SW620 (colon); SW620, 10 nM",28.5 ± 4.5%
same,Percentage cytotoxicity,"SW620 (colon); SW620, 100 nM",23 ± 6.7%
same,Percentage cytotoxicity,"SW620 (colon); SW620, 1 μM",15 ± 4.5%
same,Percentage cytotoxicity,KB (oral); 100 pM,13 ± 8.0%
same,Percentage cytotoxicity,KB (oral); 1 nM,30 ± 7.8%
same,Percentage cytotoxicity,KB (oral); 10 nM,27 ± 7.8%
same,Percentage cytotoxicity,KB (oral); 100 nM,26 ± 5.6%
same,Percentage cytotoxicity,KB (oral); 1 μM,27 ± 4.3%
same,Percentage cytotoxicity,"PA-1 (ovary); PA1, 100 pM",16.1 ± 0.0%
same,Percentage cytotoxicity,"PA-1 (ovary); PA1, 1 nM",30 ± 6.0%
same,Percentage cytotoxicity,"PA-1 (ovary); PA1, 10 nM",23 ± 3.5%
same,Percentage cytotoxicity,"PA-1 (ovary); PA1, 100 nM",22.3 ± 4.5%
same,Percentage cytotoxicity,"PA-1 (ovary); PA1, 1 μM",21 ± 5.5%
